# Experimental data: US20240261414A1, “FATTY ACID AMIDE HYDROLASE (FAAH) CLEAVABLE PRODRUGS OF BRAIN TARGETING ACTIVES AND COMBINATION WITH PERIPHERALLY RESTRICTED FAAH INHIBITORS” (Autobahn Therapeutics, Inc., priority 2021, published 2024)
# Target: T1, recombinant human FAAH (rhFAAH) (Homo sapiens, UniProt O00519)
# T1 construct: purchased Cayman Chemical (Ann Arbor, MI, USA)
# T1 sequence (O00519 1-579): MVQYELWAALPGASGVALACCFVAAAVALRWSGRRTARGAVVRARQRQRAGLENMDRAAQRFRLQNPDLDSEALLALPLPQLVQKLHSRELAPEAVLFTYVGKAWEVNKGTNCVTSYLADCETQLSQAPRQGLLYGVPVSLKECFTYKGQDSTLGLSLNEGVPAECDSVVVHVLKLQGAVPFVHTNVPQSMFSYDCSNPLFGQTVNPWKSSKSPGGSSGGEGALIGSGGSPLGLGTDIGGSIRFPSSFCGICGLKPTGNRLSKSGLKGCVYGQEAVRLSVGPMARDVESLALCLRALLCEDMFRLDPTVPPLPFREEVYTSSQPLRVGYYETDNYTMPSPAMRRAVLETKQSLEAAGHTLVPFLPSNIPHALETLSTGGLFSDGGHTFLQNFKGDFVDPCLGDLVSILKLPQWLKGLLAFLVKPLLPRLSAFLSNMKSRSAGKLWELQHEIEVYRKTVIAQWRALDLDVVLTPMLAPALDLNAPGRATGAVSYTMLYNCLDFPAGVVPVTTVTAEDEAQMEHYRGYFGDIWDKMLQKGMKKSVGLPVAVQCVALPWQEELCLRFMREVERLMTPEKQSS
# Experiment: FAAH substrate evaluation (acid metabolite formation)
# Format: biochemical
# Conditions: 0.5 ng/L rhFAAH, 1 μM test compound, Tris-EDTA buffer pH 8.0, room temperature, 0-60 minutes
# Description: Purified recombinant human FAAH (rhFAAH) was purchased from Cayman Chemical (Ann Arbor, MI, USA). The total volume for each incubation was 400 μL containing a final 0.5 ng/L rhFAAH, 1 μM test compound, 1.25% ethanol or 1 μM PF-3845 (FAAH inhibitor), and 0.1% bovine serum albumin in Tris-EDTA buffer at pH 8.0). The positive control was LL-341001. The incubation was conducted at the room temperature. At 0, 5, 15, 30 and 60 minutes, an aliquot of 30 μL reaction mixtures was removed and mixed with 300 μL acetonitrile containing 5 ng/mL terfenadine and 10 ng/mL tolbutamide as internal standards to quench the reaction. The resulting mixture was centrifuged at 4000 rpm, 4° C. for 15 minutes, and 100 μL supernatant was ready for LC-MS/MS analysis to measure the formation of acid metabolite.
# Acquity Ultra Performance LC system from Waters was used for sample analysis. The chromatography was performed on a reverse phase Kinetex 2.6 μm C18 column, 2.1×30 mm, 100 Å. The mobile phase A comprised of 0.1% formic acid in water and mobile phase B comprised of 0.1% formic acid in acetonitrile with a 2-min run time at the flow rate of 0.8 mL/min for the acid metabolite from positive control or a 1.5 min run time at the flow rate of 0.9 mL/min for the acid metabolite of test compounds. The mass spectrometer (API-5500 and API Q Trap 4000 Applied Biosystems/MDS SCIEX Instruments, Framingham, MA, USA) was operated under ESI positive or negative ion MRM mode.
# The formation of acid metabolite was monitored and quantified using one calibration point of 1 μM. The observed rate constant (ke) for the acid metabolite formation was calculated by plotting the metabolite concentration versus time of incubation with the slope being ke and is shown in Table 2.
row,SMILES,ke (observed rate constant for the acid metabolite formation)
1,"Cc1c(C=CC(=O)Nc2cccnn2)ccc(OCc2cc(Cl)cc3c2OC(C)(C)C3)c1C [Compound 2, 3-(4-((5-chloro-2,2-dimethyl-2,3-dihydrobenzofuran-7-yl)methoxy)-2,3-dimethylphenyl)-N-(pyridazin-3-yl)propenamide]",B (ke is less than 1.0 and more than or equal to 0.1)
2,"Cc1c(CCC(=O)NC2CC2)ccc(OCc2cc(Cl)cc3c2OC(C)(C)C3)c1C [Compound 3, 3-(4-((5-chloro-2,2-dimethyl-2,3-dihydrobenzofuran-7-yl)methoxy)-2,3-dimethylphenyl)-N-cyclopropylpropanamide]",B (ke is less than 1.0 and more than or equal to 0.1)
3,"Cc1c(C=CC(=O)N[C@@H]2C[C@H]2F)ccc(OCc2cc(Cl)cc3c2OC(C)(C)C3)c1C [Compound 4, 3-(4-((5-chloro-2,2-dimethyl-2,3-dihydrobenzofuran-7-yl)methoxy)-2,3-dimethylphenyl)-N-((1R,2R)-2-fluorocyclopropyl)propenamide]",B (ke is less than 1.0 and more than or equal to 0.1)
4,"Cc1c(C=CC(=O)N[C@@H]2C[C@@H]2F)ccc(OCc2cc(Cl)cc3c2OC(C)(C)C3)c1C [Compound 5, 3-(4-((5-chloro-2,2-dimethyl-2,3-dihydrobenzofuran-7-yl)methoxy)-2,3-dimethylphenyl)-N-((1R,2S)-2-fluorocyclopropyl)propenamide]",B (ke is less than 1.0 and more than or equal to 0.1)
5,"Cc1c(C=CC(=O)NCCCF)ccc(OCc2cc(Cl)cc3c2OC(C)(C)C3)c1C [Compound 6, 3-(4-((5-chloro-2,2-dimethyl-2,3-dihydrobenzofuran-7-yl)methoxy)-2,3-dimethylphenyl)-N-(3-fluoropropyl)propenamide]",B (ke is less than 1.0 and more than or equal to 0.1)
6,"Cc1c(C=CC(=O)Nc2ccncc2)ccc(OCc2cc(Cl)cc3c2OC(C)(C)C3)c1C [Compound 7, 3-(4-((5-chloro-2,2-dimethyl-2,3-dihydrobenzofuran-7-yl)methoxy)-2,3-dimethylphenyl)-N-(pyridin-4-yl)propenamide]",A (ke is more than or equal to 1.0)
7,"Cc1c(C=CC(N)=O)ccc(OCc2cc(Cl)cc3c2OC(C)(C)C3)c1C [Compound 9, 3-(4-((5-chloro-2,2-dimethyl-2,3-dihydrobenzofuran-7-yl)methoxy)-2,3-dimethylphenyl)propenamide]",A (ke is more than or equal to 1.0)
8,"CNC(=O)CCc1ccc(OCc2cc(Cl)cc3c2OC(C)(C)C3)c(C)c1C [Compound 10, 3-(4-((5-chloro-2,2-dimethyl-2,3-dihydrobenzofuran-7-yl)methoxy)-2,3-dimethylphenyl)-N-methylpropanamide]",A (ke is more than or equal to 1.0)
9,"Cc1c(C=CC(=O)NCCO)ccc(OCc2cc(Cl)cc3c2OC(C)(C)C3)c1C [Compound 11, 3-(4-((5-chloro-2,2-dimethyl-2,3-dihydrobenzofuran-7-yl)methoxy)-2,3-dimethylphenyl)-N-(2-hydroxyethyl)propenamide]",A (ke is more than or equal to 1.0)
10,CCCCC[C@H](O)CC[C@@H]1[C@H]2Cc3cccc(OCC(=O)NC4CC4)c3C[C@H]2C[C@H]1O [Compound 12],C (ke is less than 0.1 and more than 0)
11,CCCCC[C@H](O)CC[C@@H]1[C@H]2Cc3cccc(OCC(=O)NC)c3C[C@H]2C[C@H]1O [Compound 13],D (ke is 0)
12,CCCCC[C@H](O)CC[C@@H]1[C@H]2Cc3cccc(OCC(N)=O)c3C[C@H]2C[C@H]1O [Compound 14],B (ke is less than 1.0 and more than or equal to 0.1)
13,O=C(NC1CC1)c1ccc2nc(-c3cc(Cl)cc(Cl)c3)oc2c1 [Compound 15],D (ke is 0)
14,CNC(=O)c1ccc2nc(-c3cc(Cl)cc(Cl)c3)oc2c1 [Compound 16],D (ke is 0)
15,CCc1cc(/C(C)=N/OCc2ccc(C3CCCCC3)c(C(F)(F)F)c2)ccc1CN1CC(C(=O)NCCO)C1 [Compound 17],A (ke is more than or equal to 1.0)
16,CCc1cc(/C(C)=N/OCc2ccc(C3CCCCC3)c(C(F)(F)F)c2)ccc1CN1CC(C(=O)NC)C1 [Compound 18],B (ke is less than 1.0 and more than or equal to 0.1)
17,CCc1cc(/C(C)=N/OCc2ccc(C3CCCCC3)c(C(F)(F)F)c2)ccc1CN1CC(C(N)=O)C1 [Compound 19],D (ke is 0)

row,SMILES,ke (observed rate constant for the acid metabolite formation)
1,CNC(=O)C[C@H]1CCc2c1[nH]c1ccc(OCc3ccc(C4CCCC4)c(C(F)(F)F)c3)cc21 [Compound 21],D (ke is 0)
2,CNC(=O)CCSCc1ccc(-c2onc(C)c2NC(=O)O[C@H](C)c2ccccc2Cl)cc1 [Compound 23],B (ke is less than 1.0 and more than or equal to 0.1)
3,Cc1noc(-c2ccc(CSCCC(N)=O)cc2)c1NC(=O)O[C@H](C)c1ccccc1Cl [Compound 24],B (ke is less than 1.0 and more than or equal to 0.1)
4,CCc1cc(/C(C)=N/OCc2ccc(C3CCCCC3)c(C(F)(F)F)c2)ccc1CN1CC(C(=O)NC2CC2F)C1 (stereo not shown) [Compound 28],D (ke is 0)
5,COc1ccc(NC(=O)c2ccc(F)c(OCCCc3c(C)n[nH]c3C)c2)cn1 [Compound 29],B (ke is less than 1.0 and more than or equal to 0.1)
6,Cc1noc(-c2ccc(NC(=O)CCC(=O)NCCCF)cc2F)c1NC(=O)O[C@H](C)c1ccccc1Cl [Compound 30],B (ke is less than 1.0 and more than or equal to 0.1)
7,Cc1noc(-c2ccc(NC(=O)CCC(=O)NC3CC3)cc2F)c1NC(=O)O[C@H](C)c1ccccc1Cl [Compound 31],D (ke is 0)
8,O=C(C[C@H]1CCc2c1[nH]c1ccc(OCc3ccc(C4CCCC4)c(C(F)(F)F)c3)cc21)NC1CC1F (stereo partly shown) [Compound 32],C (ke is less than 0.1 and more than 0)
9,Cc1noc(-c2ccc(CSCCC(=O)NC3CC3)cc2)c1NC(=O)OC(C)c1ccccc1Cl (stereo not shown) [Compound 33],D (ke is 0)
10,Cc1noc(NC(=O)CCSCc2ccc(-c3onc(C)c3NC(=O)OC(C)c3ccccc3Cl)cc2)c1C (stereo not shown) [Compound 34],D (ke is 0)
11,Cc1c(CCC(=O)Nc2ccncc2)ccc(OCc2cc(Cl)cc3c2OC(C)(C)C3)c1C [Compound 35],B (ke is less than 1.0 and more than or equal to 0.1)
12,Cc1n[nH]c(C)c1CCCOc1cc(C(N)=O)ccc1F [Compound 36],D (ke is 0)
13,COc1ccc(NC(=O)c2ccc3nc(-c4cc(Cl)cc(Cl)c4)oc3c2)nn1 [Compound 37],B (ke is less than 1.0 and more than or equal to 0.1)
14,CCc1cc(/C(C)=N/OCc2ccc(C3CCCCC3)c(C(F)(F)F)c2)ccc1CN1CC(C(=O)Nc2ccncc2)C1 [Compound 38],A (ke is more than or equal to 1.0)
15,CCc1cc(/C(C)=N/OCc2ccc(C3CCCCC3)c(C(F)(F)F)c2)ccc1CN1CC(C(=O)NCCCF)C1 [Compound 39],B (ke is less than 1.0 and more than or equal to 0.1)
16,Cc1noc(-c2ccc(CSCCC(=O)N[C@@H]3C[C@H]3F)cc2)c1NC(=O)OC(C)c1ccccc1Cl (stereo partly shown) [Compound 40],C (ke is less than 0.1 and more than 0)
17,Cc1noc(-c2ccc(CSCCC(=O)Nc3cccnn3)cc2)c1NC(=O)O[C@H](C)c1ccccc1Cl [Compound 41],B (ke is less than 1.0 and more than or equal to 0.1)
